In patent US12369584B2, “Fungicide mixtures” (LANXESS Deutschland GmbH, priority 2019, dated 2025):
Read-outs that look alike come from different tables or passages of the source.

How the values were obtained:
Assay in all cases: MIC on nutrient agar and synergistic index (Kull)
Format in all cases: cell-based
Paecilomyces variotii = tested on: Paecilomyces variotii
Excerpt: (§1) The term synergism is used when the action of a combination of antimicrobial substances is being evaluated.
(§2) The synergism found for the mixtures according to the invention can be determined via the following mathematical formula (cf. F. C. Kull, P. C. Elisman, H. D. Sylwestrowicz and P. K. Mayer, Appl. Microbiol. 9, 538 (1961):
(§3) Qa=amount of component A in the active substance mixture which achieves the desired effect, i. e. no microbial growth,
(§4) QA=amount of component A which, when used alone, suppresses the growth of the microorganisms,
(§5) Qb=amount of component B in the active substance mixture which suppresses the growth of the microorganisms,
(§6) QB=amount of component B which, when used alone, suppresses the growth of the microorganisms
(§7) If the sum of the ratios for a mixture Qa/QA+Qb/QB=1, additivity is indicated; if it is <1, synergism has occurred; a value of >1 is indicative of antagonism.
(§8) To determine the antimicrobial efficacy and synergy of active ingredients mixtures, the Minimum Inhibitory Concentration (MIC) of the active substances and their respective combinations were determined. The Minimum Inhibitory Concentration of a given antimicrobial compound or mixture is the lowest concentration expressed in […] that under defined in vitro conditions inhibits the growth of a given micro-organism (for example bacteria, mould fungi, yeasts). The growth of the microorganisms is observed on petri dishes containing a defined nutrient agar.
(§9) The antimicrobial efficacy and synergy of combinations based on TBZ, PYM and FDL were determined.

Chaetomium globosum = tested on: Chaetomium globosum
Excerpt: as §1, §2, §3, §4, §5, §6, §7, §8, §9

Aureobasidium pullulans = tested on: Aureobasidium pullulans
Excerpt: as §1, §2, §3, §4, §5, §6, §7, §8, §9

Alternaria alternata = tested on: Alternaria alternata
Excerpt: as §1, §2, §3, §4, §5, §6, §7, §8, §9

Stachybotris chartarum = tested on: Stachybotris chartarum
Excerpt: as §1, §2, §3, §4, §5, §6, §7, §8, §9

[1] = Stachybotris chartarum, nutrient agar, read-out: MIC

Row | Compound | MIC (Paecilomyces variotii) | MIC (Chaetomium globosum) | MIC (Aureobasidium pullulans) | MIC (Alternaria alternata) | MIC (Stachybotris chartarum) | MIC (Paecilomyces variotii; nutrient agar, read-out: MIC) | MIC (Chaetomium globosum; nutrient agar, read-out: MIC) | MIC (Aureobasidium pullulans; nutrient agar, read-out: MIC) | MIC (Alternaria alternata; nutrient agar, read-out: MIC) | MIC (Stachybotris chartarum; [1])
1 | N#Cc1c[nH]cc1-c1cccc2c1OC(F)(F)O2 [FDL, fludioxonil] | 175 µg/mL | 1500 µg/mL | 1500 µg/mL | 5 µg/mL | 5 µg/mL | – | – | – | – | –
2 | Cc1cc(C)nc(Nc2ccccc2)n1 [PYM, pyrimethanil] | – | – | – | – | – | 90 µg/mL | 250 µg/mL | 175 µg/mL | 25 µg/mL | 100 µg/mL
3 | c1ccc2[nH]c(-c3cscn3)nc2c1 [TBZ, thiabendazole] | – | – | – | – | – | 5 µg/mL | 5 µg/mL | 5 µg/mL | 250 µg/mL | 50 µg/mL
